Laboratory results as given in PubChem BioAssay (NCI).
Values joined by “and” are separate entries in the source; they are usually repeats but may differ in a detail not shown here. Equal values may be shown once.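 Method: 48-hour compound exposure of cells in 96-well plates, five concentrations, linear interpolation of endpoints. At the GI50, growth is halved. TGI denotes the concentration required for complete inhibition of growth.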

What was measured:
Experiment in all cases: NCI anticancer screen, dose series, 48 h
SNB-75 CNS = test system: SNB-75 CNS
CCRF-CEM leukemia = test system: CCRF-CEM leukemia
EKVX NSCLC = test system: EKVX NSCLC
MDA-MB-231 breast = test system: MDA-MB-231 breast
XF 498 CNS = test system: XF 498 CNS
SN12C renal = test system: SN12C renal
COLO 205 colon = test system: COLO 205 colon
SF-539 CNS = test system: SF-539 CNS
HL-60(TB) leukemia = test system: HL-60(TB) leukemia
HOP-18 NSCLC = test system: HOP-18 NSCLC

Compound | GI50 (SNB-75 CNS) | TGI (SNB-75 CNS) | GI50 (CCRF-CEM leukemia) | TGI (CCRF-CEM leukemia) | GI50 (EKVX NSCLC) | TGI (EKVX NSCLC) | GI50 (MDA-MB-231 breast) | TGI (MDA-MB-231 breast) | TGI (XF 498 CNS) | GI50 (SN12C renal) | GI50 (COLO 205 colon) | TGI (COLO 205 colon) | GI50 (SF-539 CNS) | TGI (SF-539 CNS) | GI50 (HL-60(TB) leukemia) | TGI (HL-60(TB) leukemia) | TGI (HOP-18 NSCLC) | TGI (SN12C renal)
COC1C(OC(=O)/C=C/C=C/C=C/C=C/C(=O)O)CCC2(CO2)C1C1(C)OC1CC=C(C)C (centres undefined) | 0.287 µM | > 86.4 µM | 0.386 µM | 78.1 µM | 0.436 µM | > 82.9 µM | 0.525 µM | 80.5 µM | > 100 µM | 0.225 µM | 0.157 µM | 26.1 µM | 0.347 µM | > 100 µM | 0.187 µM | 70.6 µM | 94.8 µM | –
COc1ccc2c(c1[N+](=O)[O-])CC[C@@H]1[C@@H]2CC[C@]2(C)C(=O)CC[C@@H]12 | 142 µM | > 25 µM and 345 µM | > 1000 µM | – | > 580 µM | > 1000 µM | 400 µM | > 905 µM | 25 µM | 983 µM | > 1000 µM | – | 300 µM | > 890 µM | > 1000 µM | – | > 25 µM | > 1000 µM
CC(C)OC(=O)Nc1c([N+](=O)[O-])cc(C(F)(F)F)cc1[N+](=O)[O-] | – | 40 µM | – | > 100 µM | – | > 100 µM | – | > 100 µM | > 55.7 µM | – | – | > 100 µM | – | 70.3 µM | – | > 100 µM | > 100 µM | > 100 µM
CN(C)CCN1C(=O)c2cccc3cc(N)cc(c23)C1=O | 3.81 µM | 17 µM and 16.7 µM | 3.45 µM | > 50.7 µM and 20 µM | 4.22 µM | 39.7 µM and 15.3 µM | 8.01 µM | 34.8 µM and 9.64 µM | 3.64 µM | 2.83 µM | 2.23 µM | 14.7 µM and 7.19 µM | – | 18.2 µM and 14.7 µM | 5.29 µM | 59.2 µM and 16.2 µM | 33.7 µM | > 56.9 µM and 16.3 µM
CC1=NC2(C(=O)O)C3(C(=O)O)N=C(C)OC3(C(F)(F)F)C2(C(F)(F)F)O1 (centres undefined) | – | > 100 µM | – | > 100 µM | – | > 100 µM | – | – | > 100 µM | – | – | > 100 µM | – | > 100 µM | – | > 100 µM | > 100 µM | > 100 µM
O=c1cc(-c2cccc(Cl)c2)[nH]c2cc3c(cc12)OCO3 | – | 0.712 µM | – | 75 µM and 22.6 µM | – | – | – | 11.5 µM | 13.8 µM | 0.522 µM | – | 10.4 µM | 0.288 µM | 1.08 µM and 1.56 µM | 0.263 µM | 7.5 µM and 1.39 µM | 34.4 µM | 75 µM and 12.5 µM
CSC(=Nc1ccc([N+](=O)[O-])cc1C#N)NC(=O)c1ccccc1 | – | > 100 µM | – | > 100 µM | – | > 100 µM | – | – | > 100 µM | – | – | > 100 µM | – | > 100 µM | – | > 100 µM | > 100 µM | > 100 µM
